Legend:
[1] = target: T1, DNA topoisomerase 1 (Homo sapiens) (UniProt P11387); assay: Stability constant for DNA topoisomerase I complex in competitive DNA assay
T1 sequence (whole entry): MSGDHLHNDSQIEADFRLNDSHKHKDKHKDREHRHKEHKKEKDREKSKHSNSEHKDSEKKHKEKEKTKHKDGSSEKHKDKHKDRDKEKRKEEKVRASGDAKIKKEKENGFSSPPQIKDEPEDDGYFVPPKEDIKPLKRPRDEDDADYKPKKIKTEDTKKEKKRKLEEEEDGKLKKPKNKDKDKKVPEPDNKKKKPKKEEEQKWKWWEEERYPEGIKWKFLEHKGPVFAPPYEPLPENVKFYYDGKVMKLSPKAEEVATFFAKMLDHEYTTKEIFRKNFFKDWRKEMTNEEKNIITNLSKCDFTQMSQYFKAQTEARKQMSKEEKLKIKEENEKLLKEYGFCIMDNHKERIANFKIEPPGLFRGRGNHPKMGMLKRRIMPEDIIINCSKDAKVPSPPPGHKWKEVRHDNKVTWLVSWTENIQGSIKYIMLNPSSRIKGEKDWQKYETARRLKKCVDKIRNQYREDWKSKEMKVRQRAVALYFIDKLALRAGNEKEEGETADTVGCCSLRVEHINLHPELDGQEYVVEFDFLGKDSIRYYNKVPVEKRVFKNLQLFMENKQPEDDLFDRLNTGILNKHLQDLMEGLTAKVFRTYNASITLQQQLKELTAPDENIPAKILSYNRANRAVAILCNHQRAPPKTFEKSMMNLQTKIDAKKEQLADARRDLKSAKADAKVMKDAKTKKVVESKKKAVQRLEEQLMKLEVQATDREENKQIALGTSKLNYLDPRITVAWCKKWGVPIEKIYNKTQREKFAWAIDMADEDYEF

[2] = system: HeLa; assay: Concentration required to inhibit growth of human cervical HeLa carcinoma cell line; format: functional, cell-based
[3] = system: PC-3; assay: Concentration required to inhibit growth of human prostate PC-3 carcinoma cell line; format: functional, cell-based
[4] = target: T2, DNA topoisomerase 1 (Homo sapiens, UniProt P11387); assay: Effective concentration against DNA topoisomerase I
T2 sequence (P11387 whole entry): T1 sequence (whole entry)

Row | SMILES | K app [1] [min⁻¹] | IC50 ([2]; Homo sapiens, HeLa) [nM] | IC50 ([3]; Homo sapiens, PC-3) [nM] | EC50 [4] [nM] | IC50 ([2]; hela) [nM] | IC50 ([3]; pc-3) [nM]
1 | CC[C@@]1(O)C(=O)OCc2c1cc1n(c2=O)Cc2c-1nc1cc3c(cc1c2-c1ccc(C)cc1)OCO3 | 0.005 | 2 | 8.3 | 1040 | – | –
2 | CC[C@@]1(O)C(=O)OCc2c1cc1n(c2=O)Cc2c-1nc1cc3c(cc1c2-c1ccc(Cl)cc1)OCO3 | 0.008 | 26 | 8.2 | 1160 | – | –
3 | CC[C@@]1(O)C(=O)OCc2c1cc1n(c2=O)Cc2cc3cc4c(cc3nc2-1)OCO4 | 0.05 | 9.6 | 8.1 | – | – | –
4 | CCCCc1c2c(nc3ccccc13)-c1cc3c(c(=O)n1C2)COC(=O)[C@]3(O)CC | 0.05 | 37.3 | 48.7 | 200 | – | –
5 | CC[C@@]1(O)C(=O)OCc2c1cc1n(c2=O)Cc2cc3ccccc3nc2-1 [CAMPTOTHECIN] | 0.14 | 117 | 1410 | – | – | –
6 | CC[C@@]1(O)C(=O)OCc2c1cc1n(c2=O)Cc2c-1nc1cc3c(cc1c2Cc1ccccc1)OCO3 | 0.05 | 20.5 | 18.9 | 1950 | – | –
7 | CC[C@@]1(O)C(=O)OCc2c1cc1n(c2=O)Cc2c-1nc1ccccc1c2C(C)(C)C | 0.26 | 204 | 308 | 240 | – | –
8 | CC[C@@]1(O)C(=O)OCc2c1cc1n(c2=O)Cc2c-1nc1cc3c(cc1c2-c1ccccc1)OCO3 | 0.005 | 8.1 | 8.1 | 150 | – | –
9 | CC[C@@]1(O)C(=O)OCc2c1cc1n(c2=O)Cc2c-1nc1ccccc1c2CC(C)C | 0.11 | 1310 | 170 | 450 | – | –
10 | CCc1c2c(nc3cc4c(cc13)OCO4)-c1cc3c(c(=O)n1C2)COC(=O)[C@]3(O)CC | 0.03 | 13.9 | 10 | 270 | – | –
11 | CCc1c2c(nc3ccc(O)cc13)-c1cc3c(c(=O)n1C2)COC(=O)[C@]3(O)CC (stereo in doubt; form 2) [7-ETHYL-10-HYDROXYCAMPTOTHECIN] | – | – | – | 70 | 38.8 | 35.3
12 | CCc1c2c(nc3ccc(O)cc13)-c1cc3c(c(=O)n1C2)COC(=O)[C@]3(O)CC (stereo in doubt; form 1) | 0.06 | – | – | – | – | –
13 | CCc1c2c(nc3ccc(O)cc13)-c1cc3c(c(=O)n1C2)COC(=O)[C@]3(O)CC (stereo in doubt; form 1) [7-ETHYL-10-HYDROXYCAMPTOTHECIN] | – | 25.7 | 35.6 | 320 | – | –
14 | CCc1c2c(nc3ccc(O)cc13)-c1cc3c(c(=O)n1C2)COC(=O)[C@]3(O)CC (stereo in doubt; form 2) | 0.12 | – | – | – | – | –
15 | CC[C@@]1(O)C(=O)OCc2c1cc1n(c2=O)Cc2c-1nc1ccccc1c2Cc1ccccc1 | 0.24 | 80.9 | 51.2 | 4560 | – | –
16 | CC[C@@]1(O)C(=O)OCc2c1cc1n(c2=O)Cc2c-1nc1cc3c(cc1c2-c1ccc(F)cc1)OCO3 | 0.004 | 16.2 | 6.3 | 1390 | – | –
17 | CC[C@@]1(O)C(=O)OCc2c1cc1n(c2=O)Cc2c-1nc1cc3c(cc1c2C1CCCCC1)OCO3 | 0.03 | 9 | 11.5 | 1000 | – | –
18 | CC[C@@]1(O)C(=O)OCc2c1cc1n(c2=O)Cc2c-1nc1cc3c(cc1c2C1CCCC1)OCO3 | 0.02 | 6.2 | 9 | 190 | – | –
19 | CC[C@@]1(O)C(=O)OCc2c1cc1n(c2=O)Cc2c-1nc1cc3c(cc1c2-c1ccc(C(F)(F)F)cc1)OCO3 | 0.007 | 6.9 | 13.4 | 160 | – | –

Reference: ChEMBL document CHEMBL1137998 (Bioorg Med Chem Lett, 2004)
